The source of these data is US20240342292A1, “Compounds for the Degradation of EGFR Kinase” (BeiGene Switzerland GmbH, priority 2021, published 2024).

SMILES strings stand for the structures.

Assay [1] concerns Del19/T790M/C797S EGFR. In words: EGFR degradation HTRF assay in H1975-clone #28 (DTC) cells. It is filed as cell-based. The conditions noted are these: H1975 # 28 DTC (Del19/T790M/C797S), 16h treatment; for DC50: HTRF; for Dmax (%): maximum percentage of degradation. A digest of the protocol: (§1)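 H1975 clones stably overexpressing mutant EGFR by lentivirus, with endogenous EGFR knocked out by sgRNA and homozygosity confirmed by sequencing, were treated 16 h at 37 °C with compounds in 0.2% DMSO medium, 8 doses from 10 uM in 5-fold dilution. Lysates were read by HTRF (665/620 nm); DC50 came from a four-parameter fit.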
In general terms: In TR-FRET formats the signal depends on donor and acceptor labels being close together.

Assay [2] concerns the target T1, L858R/T790M/C797S EGFR (Homo sapiens, UniProt P00533, C797S/L858R/T790M).
T1 construct: expressed in transfected cells; host or cells: H1975 clone #25 (lentiviral over-expression, endogenous EGFR knocked out by sgRNA)
The experiment in a line: EGFR degradation HTRF assay in H1975-clone #25 (LTC) cells. In kind it is cell-based. The conditions noted are these: 16h treatment; for DC50: H1975 # 25-LTC (L858R/T790M/C797S), HTRF; for Dmax: NCI-H1975, H1975 # 25-LTC (L858R/T790M/C797S), maximum percentage of degradation. A digest of the protocol: as §1

T1 sequence (P00533 25-1210 T790M/C797S/L858R): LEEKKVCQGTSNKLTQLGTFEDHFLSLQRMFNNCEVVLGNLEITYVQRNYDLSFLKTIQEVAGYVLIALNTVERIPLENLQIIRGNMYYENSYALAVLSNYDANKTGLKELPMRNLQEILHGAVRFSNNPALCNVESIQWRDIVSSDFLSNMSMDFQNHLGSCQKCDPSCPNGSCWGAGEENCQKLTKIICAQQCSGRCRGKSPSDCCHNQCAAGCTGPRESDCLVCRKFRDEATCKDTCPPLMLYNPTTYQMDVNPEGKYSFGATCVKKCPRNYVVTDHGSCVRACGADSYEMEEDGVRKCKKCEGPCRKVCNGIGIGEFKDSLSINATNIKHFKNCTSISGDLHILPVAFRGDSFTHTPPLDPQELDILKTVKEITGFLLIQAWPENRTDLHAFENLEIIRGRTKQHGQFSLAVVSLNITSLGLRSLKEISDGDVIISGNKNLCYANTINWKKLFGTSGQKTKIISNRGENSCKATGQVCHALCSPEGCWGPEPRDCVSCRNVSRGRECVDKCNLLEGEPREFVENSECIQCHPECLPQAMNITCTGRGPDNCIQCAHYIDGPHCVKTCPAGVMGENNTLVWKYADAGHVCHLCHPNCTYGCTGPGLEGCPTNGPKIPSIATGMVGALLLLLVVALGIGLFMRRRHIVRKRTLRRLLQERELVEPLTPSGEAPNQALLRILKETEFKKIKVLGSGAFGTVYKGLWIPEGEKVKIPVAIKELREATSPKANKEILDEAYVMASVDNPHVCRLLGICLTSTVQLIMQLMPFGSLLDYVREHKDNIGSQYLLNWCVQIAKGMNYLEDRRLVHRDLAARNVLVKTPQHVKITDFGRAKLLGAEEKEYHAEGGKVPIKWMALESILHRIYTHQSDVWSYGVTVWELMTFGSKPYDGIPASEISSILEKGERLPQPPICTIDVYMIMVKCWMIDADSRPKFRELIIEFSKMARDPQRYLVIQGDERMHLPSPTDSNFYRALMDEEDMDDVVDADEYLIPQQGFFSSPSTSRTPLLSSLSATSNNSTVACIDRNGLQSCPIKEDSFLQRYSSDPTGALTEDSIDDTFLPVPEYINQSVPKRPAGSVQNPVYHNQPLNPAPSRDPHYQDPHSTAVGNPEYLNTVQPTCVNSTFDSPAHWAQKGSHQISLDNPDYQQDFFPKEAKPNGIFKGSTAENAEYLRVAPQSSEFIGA

Take `COC[C@H]1CN(C(=O)[C@@H]2CCN(c3cc(F)c([C@H]4CCC(=O)NC4=O)c(F)c3)C2)CCN1Cc1ccc2c(c1)N1C[C@H](C)CCCOc3c(cnn3C)-c3cc(cc(C)n3)C(=O)/N=C/1N2` [Example 194, (R)-3-(2,6-difluoro-4-((R)-3-((R)-3-(methoxymethyl)-4-(((R,E)-1^1,2^6,7-trimethyl-3-oxo-5^2,5^3-dihydro-1^1H,5^1H-11-oxa-4-aza-5(2,1)-benzo[d]imidazola-2(2,4)-pyridina-1(4,5)-pyrazolacycloundecaphane-5′-yl)methyl)piperazine-1-carbonyl)pyrrolidin-1-yl)phenyl)piperidine-2,6-dione]: in assay [1], the DC50 (in general, the midpoint of the concentration-degradation curve) is 0.836 nM and the “Dmax (%)” value stood at 79.44%. Also, in assay [2], half-maximal degradation (DC50) was put at 1.18 nM and the Dmax (commonly the greatest extent of degradation seen) came out at 84.4%.
Taken in the same sequence, the figures for `Cc1cc2cc(n1)-c1cnn(C)c1OCCC[C@@H](C)CN1/C(=N/C2=O)Nc2ccc(CN3CCC4(CC3)CN(C(=O)[C@H]3CN(c5cc(F)c([C@H]6CCC(=O)NC6=O)c(F)c5)CC3(C)C)C4)cc21` [Example 26, (R)-3-(4-((R)-3,3-dimethyl-4-(7-(((R,E)-1^1,2^6,7-trimethyl-3-oxo-5^2,5^3-dihydro-1^1H,5^1H-11-oxa-4-aza-5(2,1)-benzo[d]imidazola-2(2,4)-pyridina-(4,5)-pyrazolacycloundecaphane-5^6-yl)methyl)-2,7-diazaspiro[3.5]nonane-2-carbonyl)pyrrolidin-1-yl)-2,6-difluorophenyl)piperidine-2,6-dione] were 2.4 nM, 81.2%, 2 nM and 93.7%.
In the case of `Cc1cc2cc(n1)-c1cnn(C)c1OCCC[C@@H](C)CN1/C(=N/C2=O)Nc2ccc(C(=O)N(C)C3CCN(CC4CN(c5cc(F)c([C@H]6CCC(=O)NC6=O)c(F)c5)C4)CC3)cc21` [Example 286, (R,E)-N-(1-((1-(4-((R)-2,6-dioxopiperidin-3-yl)-3,5-difluorophenyl)azetidin-3-yl)methyl)piperidin-4-yl)-N,1^1,2^6,7-tetramethyl-3-oxo-5^2,5^3-dihydro-1^1H,5^1H-11-oxa-4-aza-5(2,1)-benzo[d]imidazola-2(2,4)-pyridina-1(4,5)-pyrazolacycloundecaphane-5^6-carboxamide], in assay [1], the DC50 came out at 0.652 nM and the “Dmax (%)” value came to 72.5%. Besides, in assay [2], the DC50 amounted to 0.45 nM and the Dmax is 91.2%.
In the same order, the values of `Cc1cc2cc(n1)-c1cnn(C)c1OCCC[C@@H](C)CN1/C(=N/C2=O)Nc2ccc(C(=O)N(C)[C@@H]3CCN(CCc4cc(F)c([C@H]5CCC(=O)NC5=O)c(F)c4)[C@H](C)C3)cc21` [Example 268, (R,E)-N—((2R,4R)-1-(4-((R)-2,6-dioxopiperidin-3-yl)-3,5-difluorophenethyl)-2-methylpiperidin-4-yl) -N,1^1,2^6,7-tetramethyl-3-oxo-5^2,5^3-dihydro-1^1H,5^1H-li-oxa-4-aza-5(2,1)-benzo[d]imidazola-2(2,4)-pyridina-1(4,5)-pyrazolacycloundecaphane-5^6-carboxamide] are 0.439 nM, 81.98%, 0.53 nM and 89.8%.
Taken in the same sequence, the figures for `Cc1cc2cc(n1)-c1cnn(C3CC3)c1OCCC[C@@H](C)CN1/C(=N/C2=O)Nc2ccc(CN3CCN(C(=O)[C@H]4CN(c5cc(F)c([C@H]6CCC(=O)NC6=O)c(F)c5)CC4(C)C)CC3)cc21` [Example 165, (R)-3-(4-((R)-4-(4-(((R,E)-11-cyclopropyl-2^6,7-dimethyl-3-oxo-5^2,5^3-dihydro-1^1H,5^1H-11-oxa-4-aza-5(2,1)-benzo[d]imidazola-2(2,4)-pyridina-1(4,5)-pyrazolacycloundecaphane-5^6-)n-methyl)piperazine-1-carbonyl)-3,3-dimethylpyrrolidin-1-yl)-2,6-difluorophenyl)piperidine-2,6-dione] were 2.95 nM, 74.73%, 3.1 nM and 79.9%.
Taken in the same sequence, the figures for `CO[C@@H]1CN(CCc2cc(F)c([C@H]3CCC(=O)NC3=O)c(F)c2)CC[C@H]1NC(=O)c1ccc2c(c1)N1C[C@H](C)CCCOc3c(cnn3C)-c3cc(cc(C)n3)C(=O)/N=C/1N2` [Example 253, (R,E)-N—((3R,4R)-1-(4-((R)-2,6-dioxopiperidin-3-yl)-3,5-difluorophenethyl)-3-methoxypiperidin-4-yl)-1^1,2^6,7-trimethyl-3-oxo-5^2,5^3-dihydro-1^1H,5^1H-11-oxa-4-aza-5(2,1)-benzo[d]imidazola-2(2,4)-pyridina-1(4,5)-pyrazolacycloundecaphane-5^6-carboxamide] were 0.59 nM, 82.5%, 0.289 nM and 93.8%.
With `Cc1cc2cc(n1)-c1cnn(C)c1OCCC[C@@H](C)CN1/C(=N/C2=O)Nc2ccc(CN3CC4(CCN(C(=O)[C@@H]5CCN(c6cc(F)c([C@H]7CCC(=O)NC7=O)c(F)c6)C5)CC4)C3)cc21` [Example 84, (R)-3-(2,6-difluoro-4-((R)-3-(2-(((R,E)-1^1,2^6,7-trimethyl-3-oxo-5^2,5^3-dihydro-1^1H,5^1H-11-oxa-4-aza-5(2,1)-benzo[d]imidazola-2(2,4)-pyridina-1(4,5)-pyrazolacycloundecaphane-5^6-yl)methyl)-2,7-diazaspiro[3.5]nonane-7-carbonyl)pyrrolidin-1-yl)phenyl)piperidine-2,6-dione], in assay [1], half-maximal degradation (DC50) was put at 0.8 nM and the “Dmax (%)” value is on record as 86.1%. In addition, in assay [2], it took 2.9 nM to reach half-maximal degradation (DC50) and the Dmax is 92.7%.
Taken in the same sequence, the figures for `COC[C@@H]1CN(c2cc(F)c([C@H]3CCC(=O)NC3=O)c(F)c2)CCN1C(=O)C1CCN(c2ccc3c(c2)N2C[C@H](C)CCCOc4c(cnn4C)-c4cc(cc(C)n4)C(=O)/N=C/2N3)CC1` [Example 357, (R)-3-(2,6-difluoro-4-((S)-3-(methoxymethyl)-4-(1-((R,E)-1^1,2^6,7-trimethyl-3-oxo-5^2,5^3-dihydro-1^1H,5^1H-11-oxa-4-aza-5(2,1)-benzo[d]imidazola-2(2,4)-pyridina-1(4,5)-pyrazolacycloundecaphane-5^6-yl)piperidine-4-carbonyl)piperazin-1-yl)phenyl)piperidine-2,6-dione] were 0.903 nM, 73.73%, 0.824 nM and 87.6%.
In the same order, the values of `Cc1cc2cc(n1)-c1cnn(C)c1OCCC[C@@H](C)CN1/C(=N/C2=O)Nc2ccc(N(C)C(=O)C3CCN(CCc4cc(F)c([C@H]5CCC(=O)NC5=O)c(F)c4)CC3)cc21` [Example 365, 1-(4-((R)-2,6-dioxopiperidin-3-yl)-3,5-difluorophenethyl)-N-methyl-N—((R,E)-1^1,2^6,7-trimethyl-3-oxo-5^2,5^3-dihydro-1^1H,5^1H-11-oxa-4-aza-5(2,1)-benzo[d]imidazola-2(2,4)-pyridina-(4,5)-pyrazolacycloundecaphane-5^6-yl)piperidine-4-carboxamide] are 0.625 nM, 80.74%, 0.878 nM and 91.1%.
In the same order, the values of `Cc1cc2cc(n1)-c1cnn(C)c1OCCC[C@@H](C)CN1/C(=N/C2=O)Nc2ccc(CN3CCC(N4CCN(C(=O)[C@H]5CCN(c6ccc7c(c6)C(=O)N(C6CCC(=O)NC6=O)C7=O)C5)CC4)CC3)cc21` (stereo partly shown) [Example 216] are 3.02 nM, 82.64%, 9.55 nM and 81.8%.
